The values below come from ChEMBL document CHEMBL5260833, “An overview of quinazolines: Pharmacological significance and recent developments” (Eur J Med Chem, 2018).

Converted amounts (≈) assume the structure as drawn.

For orientation: IC50 means the midpoint of a concentration-inhibition curve. For orientation: GI50 means the concentration giving 50% growth inhibition. One may read the inhibition as the drop in the measured response relative to a control, in per cent. Broadly, the Ki is the equilibrium dissociation constant of an inhibitor or competing ligand from its target. By ED50 is commonly meant the midpoint of the dose-response relation. Lower therefore signals an effect at a small dose. Broadly, the inhibition in vivo is the drop in the measured response relative to a control, in per cent.

The test system of data set [1] is Mus musculus. Kind of data set: Sedative activity in mouse assessed as sleeping time at 30 mg/kg, ip. Type of data set: functional.
Data set [2] concerns Mus musculus. Kind of data set: Sedative activity in mouse assessed as sleeping time at 100 mg/kg, ip. Format: functional.
Data set [3] relates to Mus musculus. Kind of data set: Anticonvulsant activity in mouse at 100 mg/kg, po measured after 30 mins relative to control. Type of data set: functional. Conditions: 0.5 h.
The test system of data set [4] is K562. Kind of data set: Anticancer activity against human K562 cells assessed as cell growth inhibition. Format: functional, cell-based.
The subject of data set [5] is RXF 393. Kind of data set: Anticancer activity against human RXF 393 cell assessed as cell growth inhibition measured after 24 hrs by SRB assay. Type of data set: functional.
Data set [6] deals with MOLT-4. Kind of data set: Anticancer activity against human MOLT-4 cell assessed as cell growth inhibition measured after 24 hrs by SRB assay. Format: functional.
The test system of data set [7] is K562. Kind of data set: Anticancer activity against human K562 cell assessed as cell growth inhibition measured after 24 hrs by SRB assay. Type of data set: functional. (In SRB staining, fixed cells bind dye roughly in proportion to their protein.)
Data set [8] relates to UO-31. Kind of data set: Anticancer activity against human UO-31 cell assessed as cell growth inhibition measured after 24 hrs by SRB assay. Type of data set: functional.
In data set [9] the test system is A549. Kind of data set: Anticancer activity against human A549 cell assessed as cell growth inhibition measured after 24 hrs by SRB assay. Type of data set: functional.
A short description of data set [10]: Anticancer activity against human CNS cell assessed as cell growth inhibition measured after 24 hrs by SRB assay. Format: functional.
Data set [11] relates to SR. The experiment in a line: Anticancer activity against human SR cell assessed as cell growth inhibition measured after 24 hrs by SRB assay. Format: functional.
The test system of data set [12] is Human immunodeficiency virus 1. The experiment in a line: Antiviral activity against HIV1. Type of data set: functional, organism-based.
Data set [13] deals with Human immunodeficiency virus 1. Kind of data set: Therapeutic index, ratio of IC50 for antiviral activity against HIV1 to EC50 for antiviral activity against HIV1. Format: functional.
The species entered for data set [14] is Oryctolagus cuniculus. Kind of data set: Antihypertensive activity in rabbit aorta assessed as vasodilation. Format: functional.
In data set [15] the test system is Mus musculus. The experiment in a line: Anticonvulsant activity in PTZ induced mouse at 100 mg/kg, ip relative to control. Type of data set: functional.
Data set [16] deals with Mus musculus. Kind of data set: Anticonvulsant activity in mouse at 100 mg/kg, ip by MES test relative to control. Format: functional.
Data set [17] is described as follows: Cytotoxicity against human CEM/ADR5000 cells assessed as reduction in cell growth. Type of data set: toxicity, cell-based.
Data set [18] deals with MCF7. Kind of data set: Cell cycle arrest in human MCF7 cells assessed as reduction in G2/M phase at 10 uM G2/M phase incubated for 24 hrs relative to control. Type of data set: functional.
Data set [19] has as its system CA46. Kind of data set: Cell cycle arrest in human CA46 cells assessed as reduction in G2/M phase at 10 uM incubated for 24 hrs relative to control. Format: functional.
In data set [20] the test system is MCF7. The experiment in a line: Anticancer activity against human MCF7 cell assessed as cell growth inhibition measured after 48 hrs by SRB assay. Format: functional, cell-based. Conditions: MCF7, 48 h.
In data set [21] the target is Tubulin. The experiment in a line: Inhibition of tubulin polymerization (unknown origin) incubated for 15 mins followed by GTP addition and measured for 20 mins by spectrophotometry. Type of data set: protein-complex assay, Homo sapiens.
The subject of data set [22] is Plasmodium falciparum. The experiment in a line: Antimalarial activity against plasmodium falciparum 3D7 assessed as bacterial growth inhibition. Format: functional, organism-based.
Data set [23] has as its system Rattus norvegicus. The experiment in a line: Inhibition of AII-induced hypertension in rat assessed as vasoconstrictor at 3 mg/kg, po measured after 2 hrs. Format: functional.
In data set [24] the test system is Cytomegalovirus. The experiment in a line: Antiviral activity against Cytomegalovirus. Conditions: Human betaherpesvirus 5.
Data set [25] concerns the target 5-hydroxytryptamine receptor 2A (Homo sapiens, UniProt P28223). Kind of data set: Inhibition of 5-HT2A (unknown origin) assessed as inhibition constant.
For data set [26], the system named is Ovarian carcinoma cell. The experiment in a line: Anticancer activity against human Ovarian carcinoma cell assessed as cell growth inhibition. Format: functional. As to conditions: read-out: ED50 (the source's name).
Data set [27] can be described thus: Anticancer activity against human Epidermoid carcinoma cell line assessed as cell growth inhibition. Type of data set: functional. As to conditions: read-out: ED50 (the source's name).
Data set [28] concerns Rattus norvegicus. Kind of data set: Inhibition of AII-induced pressor response in normotensive conscious rat administered orally. Format: functional. As to conditions: route po.
Data set [29] has as its system Rattus norvegicus. The experiment in a line: Inhibition of AII-induced pressor response in normotensive conscious rat administered intravenously. Format: functional. As to conditions: route iv.
Data set [30] has as its system Mus musculus. The experiment in a line: Analgesic activity in […] albino mouse at 20 mg/kg, po measured after 2 hrs by Tail-Flick technique relative to control. Type of data set: functional.
Data set [31] has as its system Mus musculus. Kind of data set: Analgesic activity in mouse at 100 mg/kg, ip measured after 30 mins relative to control. Type of data set: functional. Conditions: 0.5 h.
For data set [32], the target named is Prostaglandin G/H synthase 2 (Homo sapiens) (UniProt P35354). The experiment in a line: Inhibition of COXII (unknown origin) relative to control. As to conditions: concentration not given here.
Prostaglandin G/H synthase 2 (Homo sapiens), sequence (P35354 whole entry): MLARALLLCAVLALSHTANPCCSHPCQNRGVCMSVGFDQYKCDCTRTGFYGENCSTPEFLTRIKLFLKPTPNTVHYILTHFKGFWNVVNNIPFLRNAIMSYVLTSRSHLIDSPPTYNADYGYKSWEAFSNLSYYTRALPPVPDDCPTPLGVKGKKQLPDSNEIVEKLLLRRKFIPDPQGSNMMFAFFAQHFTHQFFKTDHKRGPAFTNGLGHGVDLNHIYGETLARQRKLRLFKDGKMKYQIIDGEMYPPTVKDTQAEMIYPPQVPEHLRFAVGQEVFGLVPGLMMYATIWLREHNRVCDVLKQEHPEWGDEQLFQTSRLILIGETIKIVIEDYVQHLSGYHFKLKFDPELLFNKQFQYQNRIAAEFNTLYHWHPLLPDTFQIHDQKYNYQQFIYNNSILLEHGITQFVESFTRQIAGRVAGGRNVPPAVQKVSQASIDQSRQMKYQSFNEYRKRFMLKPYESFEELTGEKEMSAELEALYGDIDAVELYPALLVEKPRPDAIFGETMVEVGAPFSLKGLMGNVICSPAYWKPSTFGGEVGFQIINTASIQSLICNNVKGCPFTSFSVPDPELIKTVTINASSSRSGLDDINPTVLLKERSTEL
The subject of data set [33] is Rattus norvegicus. Kind of data set: Antiinflammatory activity in rat at assessed as reduction in paw edema relative to control. Type of data set: functional.
For data set [34], the system named is Mus musculus. Kind of data set: Analgesic activity in phenylbenzoquinone induced mouse assessed as reduction in writhing at 10 mg/kg, po measured after 1 hrs by writhing test relative to control. Type of data set: functional. For orientation: An intraperitoneal irritant provokes the stretching counted in writhing tests.
Data set [35] concerns Mus musculus. Kind of data set: Analgesic activity in acetic acid peritonitis induced mouse assessed as reduction in writhing at 10 mg/kg, po measured after 1 hrs by writhing test relative to control. Type of data set: functional.
Data set [36] has as its system Vaccinia virus. Kind of data set: Antiviral activity against Vaccinia virus infected in human MT4 cells measured after 5 days by MTT assay. As to conditions: Orthopoxvirus vaccinia, MT4, 120 h. Type of data set: functional, organism-based. For orientation: Formazan colour is commonly taken as a measure of viable cells.
Data set [37] concerns Vaccinia virus. The experiment in a line: Antiviral activity against Vaccinia virus infected in human E6SM cells. Format: functional. As to conditions: Orthopoxvirus vaccinia.

5-hydroxytryptamine receptor 2A, sequence (P28223 whole entry): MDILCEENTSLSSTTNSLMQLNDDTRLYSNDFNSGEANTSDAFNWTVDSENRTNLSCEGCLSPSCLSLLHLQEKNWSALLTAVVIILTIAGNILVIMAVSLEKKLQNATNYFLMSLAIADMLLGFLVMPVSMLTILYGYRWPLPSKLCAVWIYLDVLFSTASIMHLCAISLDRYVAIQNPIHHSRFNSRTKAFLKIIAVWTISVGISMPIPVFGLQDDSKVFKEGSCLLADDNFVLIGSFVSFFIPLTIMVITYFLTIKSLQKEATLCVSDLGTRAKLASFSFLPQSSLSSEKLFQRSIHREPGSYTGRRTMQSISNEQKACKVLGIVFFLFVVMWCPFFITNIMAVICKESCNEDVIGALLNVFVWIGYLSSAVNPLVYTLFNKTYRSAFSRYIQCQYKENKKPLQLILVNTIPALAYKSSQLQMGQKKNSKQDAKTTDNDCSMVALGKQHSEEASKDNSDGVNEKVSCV

In the case of `Cc1ccccc1-n1c(C)nc2ccccc2c1=O` [METHAQUALONE], the figures for the Time in data set [1] and in [2] were 5.5 min and 119.7 min, respectively. The molecule also returned an Activity in data set [3] of 20%.
Regarding `CCN(CC)C(=S)SCc1ccc2nc(C)nc(O)c2c1`, the IC50 in data set [4] was found to be 0.5 µM.
As for `Nc1nc2[nH]cnc2c(=S)[nH]1` [THIOGUANINE], the GI50 in data set [5] is 0.759 µM; in data set [6] it was 9.12 µM; in [7], 0.195 µM; in data set [8] it was 1.48 µM; in data set [9] it was 3.55 µM; in data set [10] it was 4.9 µM. For the same molecule, the GI50 in [11] was 1.62 µM.
Turning to `Cc1ccc2c(c1)/C(=N\NC(=O)CSc1nc3ccccc3c(=O)n1-c1ccccc1)C(=O)N2`, the GI50 is 1.66 µM in data set [5], 0.209 µM in [8] and 0.209 µM in data set [10]. Moreover, in data set [12], the EC50 was found to be 68.1 µM. This molecule also showed a 50% inhibitory concentration (IC50) in data set [12] above 100 µM. Also, the “Ratio IC50/EC50” value in [13] is above 1.47.
In the case of `CC(=O)OC1C([N+](=O)[O-])c2ccc(Cl)cc2C(=O)N1[N+](=O)[O-]` (stereo not given), the pD2 in data set [14] is 5.4.
Regarding `CCn1c(SCC(=O)NN2C(=O)C(C)S/C2=N\c2ccccc2)nc2ccccc2c1=O` (stereo not given), the Activity in data set [15] and in [16] was 66% throughout.
In the case of `C[C@H]1[C@H](OC(=O)CCC(=O)O)O[C@@H]2O[C@@]3(C)CC[C@H]4[C@H](C)CC[C@@H]1[C@@]24OO3` [ARTESUNATE], the EC50 in data set [17] was 0.5 µM.
As to `O=c1c2cc(Cl)ccc2nc(/C=C/c2ccccc2)n1-c1ncccn1`, the inhibition at 10 µM in [18] stood at 20%; in data set [19] it was 66%. The IC50 came to 0.31 µM in data set [20] and 5.98 µM in data set [21].
For the molecule `C[C@@H]1CC[C@H]2[C@@H](C)C(=O)O[C@@H]3O[C@@]4(C)CC[C@@H]1[C@]32OO4` [ARTEMISININ], in data set [22], the EC50 came to 0.0024 µM.
With `CCCCc1nc2ccc([C@H]3OC[C@H]4[C@@H]3ON3[C@@H]4CCC3(C)C)cc2c(=O)n1Cc1ccc(-c2ccccc2-c2nn[nH]n2)cc1`, the Activity in data set [23] is on record as 70 mmHg.
Turning to `Nc1nc2c(ncn2COC(CO)CO)c(=O)[nH]1` [GANCICLOVIR], the EC50 in data set [24] worked out at 2.6 µM.
For the molecule `Cc1nc2c(c(=O)n1CCN1CCC(C(=O)c3ccc(F)cc3)CC1)CCCC2`, the Ki in data set [25] was 0.00263 µM.
As to `COc1cccc(-c2nc(O)c3cc(OC)ccc3n2)c1`, the EC50 in data set [26] and in data set [27] was below 5 µg/mL in each case.
As for `CC(=O)OC1C([N+](=O)[O-])c2ccccc2C(=O)N1[N+](=O)[O-]` (stereo not given), the pD2 in data set [14] was found to be 5.36.
For `CCCCc1nc2ccc(C(C)C)cc2c(=O)n1Cc1ccc(-c2ccccc2S(=O)(=O)NC(=O)C2CC2)cc1`, the values for the ED50 in data set [28] and in data set [29] were 0.68 mg/kg and 0.25 mg/kg, respectively.
Take `O=c1[nH]cc(F)c(=O)[nH]1` [FLUOROURACIL]: the GI50 was 55 µM in [5]; 17 µM in [6]; 0.407 µM in [7]; 6.76 µM in data set [8]; 1.05 µM in [9]; 42.7 µM in data set [10]. Further, the concentration for 50% growth inhibition (GI50) in data set [11] is 1.62 µM.
In the case of `COc1ccccc1C1SCC(=O)N1NCC(=O)Cc1nc2ccccc2c(=O)n1-c1c(C)[nH]c2ccccc12` (stereo not given), the Activity in data set [30] and in data set [31] was 80% each time. The molecule further had an inhibition in data set [32] of 90%.
As for `O=C(c1ccc(F)cc1)C1CCN(CCn2cnc3c(c2=O)CCCC3)CC1`, in data set [25], the Ki was 0.00759 µM.
Consider `CCCCC1C(=O)N(c2ccccc2)N(c2ccccc2)C1=O` [PHENYLBUTAZONE], for which, in data set [33], the “inhibition (INH)” value was determined as 38.9%. Further, the figures for the inhibition in vivo at 10 mg/kg in data set [34] and in [35] were 25% and 11%, respectively.
The molecule `CCc1nc(-n2c(-c3ccccc3)nc3ccc(Br)cc3c2=O)nc(N)c1-c1ccc(Cl)cc1` displayed an IC50 in data set [36] of 0.424 µg/mL (≈ 0.796 µM). Moreover, the MIC in data set [37] worked out at 1.92 µg/mL (≈ 3.6 µM).
